Test results published in patent US11807835B2, “Detergent compositions containing a stabilized enzyme by phosphonates” (ECOLAB USA INC., priority 2016, dated 2023).

Tests used:
[1] = tested on: enzyme (protease, amylase, lipase); test: Overall effects of phosphonates on enzyme activity (Table 3); type: biochemical; details: overall effect of the phosphonate on enzyme activity in the detergent use solution
Protocol: (§1) The enzyme activities in the detergents with different phosphonate levels were tested at 4000 ppm in 5 grains per gallon (GPG) water at 120° F. with various time points collected up to 4 hours, after a use solution was generated from the detergent composition. During the tests, the samples at different time points were collected and immediately frozen in an acetone/dry ice bath and stored in −80° C. before the activity of the enzyme was evaluated. For the use of such an assay, t=0 min was the reference point for 100% enzyme activity.
(§2) Assays of enzyme activity in formulations (% retention) were conducted to simulate a presoak condition in a beaker using the chemistry, temperature, and pH conditions relevant to manual warewash or presoak applications. Enzyme activity is an indicator of the stability of the enzyme in the detergent, specifically in an aqueous use solution within a sump (which is under conditions of high pH, temperature and dilution).
The relative enzyme activities in a use solution of the tested detergent compositions containing a different phosphonate at different concentrations over a period time are listed in Table 4A-Table 4E, Table 5A-Table 5E, and Table 6A-Table 6F.

[2] = tested on: protease; test: Protease activity retention in detergent use solution (4000 ppm, 5 GPG water; peptidyl substrate, glycine buffer pH 9.0); type: biochemical; details: for Relative Protease Enzyme Activity: use solution at 120° F.
Protocol: as §1, §2
The analysis by protease assay was conducted as follows. For the assays, a detergent composition was used to generate an aqueous use solution evaluated herein.
Enzyme activity under presoak or manual warewash conditions was traced quantitatively using a standard protease assay. Samples were prepared under bench top conditions, whereby the use solution from a detergent composition or detergent was obtained and maintained at a presoak or manual warewash temperature in a stirring water bath. After the time course for assessing enzyme stability is initiated, aliquots were taken at various time points and flash-frozen. A time=0 sample was prepared for each series by dissolving the detergent formulation at room temperature, mixing thoroughly, and flash freezing. Samples were thawed and diluted as necessary in an assay buffer usually for use in the protease assay. A glycine buffer at pH 9.0 is used here. The assay monitored the direct reaction of the protease on a small, commercially available peptidyl substrate, with liberation of the product providing correlation to the active enzyme content. The product was detected using a plate reader with an appreciable dynamic range (upper absorbance limit of the instrument >3.5). Enzyme activity levels were assessed relative to a calibration curve with average values for replicate tests used to map protease stability under presoak or manual warewash use conditions. Enzyme retention at each time point was calculated as the % enzyme activity relative to the time=0 sample.

Diglycolamine phosphonate [DGAP]
Stability (effects on enzyme activity) [1]: Yes | Relative Protease Enzyme Activity ([2]; All Ash formula, phosphonate 0.3 wt-%, time 0 min): 100.00% | Relative Protease Enzyme Activity ([2]; All Ash formula, phosphonate 0.3 wt-%, time 5 min): 81.79% | Relative Protease Enzyme Activity ([2]; All Ash formula, phosphonate 0.3 wt-%, time 10 min): 75.39% | Relative Protease Enzyme Activity ([2]; All Ash formula, phosphonate 0.3 wt-%, time 20 min): 59.47% | Relative Protease Enzyme Activity ([2]; All Ash formula, phosphonate 0.3 wt-%, time 40 min): 39.98% | Relative Protease Enzyme Activity ([2]; All Ash formula, phosphonate 0.3 wt-%, time 60 min): 27.49% | Relative Protease Enzyme Activity ([2]; All Ash formula, phosphonate 0.3 wt-%, time 90 min): 18.95% | Relative Protease Enzyme Activity ([2]; All Ash formula, phosphonate 0.3 wt-%, time 120 min): 12.48% | Relative Protease Enzyme Activity ([2]; All Ash formula, phosphonate 0.3 wt-%, time 150 min): 10.56% | Relative Protease Enzyme Activity ([2]; All Ash formula, phosphonate 0.3 wt-%, time 180 min): 9.69% | Relative Protease Enzyme Activity ([2]; All Ash formula, phosphonate 0.3 wt-%, time 210 min): 7.02% | Relative Protease Enzyme Activity ([2]; All Ash formula, phosphonate 0.3 wt-%, time 240 min): 6.34% | protease stability in all ash formula ([2]; all ash formula, versus same composition with PBTC or HEDP without amine(s), FIG. 2D): more stable | Relative Protease Enzyme Activity ([2]; base formula, phosphonate 0.3 wt-%, lower half of Table 4A, time 5): 98.30% | Relative Protease Enzyme Activity ([2]; base formula, phosphonate 0.3 wt-%, lower half of Table 4A, time 20): 91.75% | Relative Protease Enzyme Activity ([2]; base formula, phosphonate 0.3 wt-%, lower half of Table 4A, time 90): 84.87% | Relative Protease Enzyme Activity ([2]; base formula, phosphonate 0.3 wt-%, lower half of Table 4A, time 120): 82.96% | Relative Protease Enzyme Activity ([2]; base formula, phosphonate 0.3 wt-%, lower half of Table 4A, time 150, unit not given): 82.44% | Relative Protease Enzyme Activity ([2]; base formula, phosphonate 0.3 wt-%, lower half of Table 4A, time 210): 76.14% | Relative Protease Enzyme Activity ([2]; base formula, phosphonate 0.3 wt-%, lower half of Table 4A, time '0'): 100.00% | Relative Protease Enzyme Activity ([2]; base formula, phosphonate 0.3 wt-%, lower half of Table 4A, time '40'): 89.16% | Relative Protease Enzyme Activity ([2]; base formula, phosphonate 0.3 wt-%, lower half of Table 4A, time 'Blank'): 100.00% | Relative Protease Enzyme Activity ([2]; base formula, phosphonate 0.3 wt-%, lower half of Table 4A, time row printed '10'): 92.44% | Relative Protease Enzyme Activity ([2]; base formula, phosphonate 0.3 wt-%, lower half of Table 4A, time row printed '60'): 79.16% | Relative Protease Enzyme Activity ([2]; base formula, phosphonate 0.3 wt-%, lower half of Table 4A, time row printed '180'): 75.52% | Relative Protease Enzyme Activity ([2]; base formula, phosphonate 0.6 wt-%, time 0 min): 100.00% | Relative Protease Enzyme Activity ([2]; base formula, phosphonate 0.6 wt-%, time 5 min): 105.28% | Relative Protease Enzyme Activity ([2]; base formula, phosphonate 0.6 wt-%, time 10 min): 100.03% | Relative Protease Enzyme Activity ([2]; base formula, phosphonate 0.6 wt-%, time 20 min): 101.24% | Relative Protease Enzyme Activity ([2]; base formula, phosphonate 0.6 wt-%, time 40 min): 100.88% | Relative Protease Enzyme Activity ([2]; base formula, phosphonate 0.6 wt-%, time 90 min): 98.76% | Relative Protease Enzyme Activity ([2]; base formula, phosphonate 0.6 wt-%, time 120 min): 93.04% | Relative Protease Enzyme Activity ([2]; base formula, phosphonate 0.6 wt-%, time 150 min): 88.27% | Relative Protease Enzyme Activity ([2]; base formula, phosphonate 0.6 wt-%, time 180 min): 86.23% | Relative Protease Enzyme Activity ([2]; base formula, phosphonate 0.6 wt-%, time 210 min): 88.24% | Relative Protease Enzyme Activity ([2]; base formula, phosphonate 0.6 wt-%, time 240 min): 89.57% | Relative Protease Enzyme Activity ([2]; base formula, phosphonate at 0.1% elemental phosphorus, time 0 min): 100.00% | Relative Protease Enzyme Activity ([2]; base formula, phosphonate at 0.1% elemental phosphorus, time 5 min): 98.29% | Relative Protease Enzyme Activity ([2]; base formula, phosphonate at 0.1% elemental phosphorus, time 10 min): 103.47% | Relative Protease Enzyme Activity ([2]; base formula, phosphonate at 0.1% elemental phosphorus, time 20 min): 101.47% | Relative Protease Enzyme Activity ([2]; base formula, phosphonate at 0.1% elemental phosphorus, time 40 min): 88.60% | Relative Protease Enzyme Activity ([2]; base formula, phosphonate at 0.1% elemental phosphorus, time 60 min): 86.17% | Relative Protease Enzyme Activity ([2]; base formula, phosphonate at 0.1% elemental phosphorus, time 90 min): 85.84% | Relative Protease Enzyme Activity ([2]; base formula, phosphonate at 0.1% elemental phosphorus, time 120 min): 83.06% | Relative Protease Enzyme Activity ([2]; base formula, phosphonate at 0.1% elemental phosphorus, time 150 min): 81.53% | Relative Protease Enzyme Activity ([2]; base formula, phosphonate at 0.1% elemental phosphorus, time 180 min): 76.41% | Relative Protease Enzyme Activity ([2]; base formula, phosphonate at 0.1% elemental phosphorus, time 210 min): 74.23% | Relative Protease Enzyme Activity ([2]; base formula, phosphonate at 0.1% elemental phosphorus, time 240 min): 72.01%
